Measured values published in ChEMBL document CHEMBL3044829, “New carbodithioate derivatives: synthesis, characterization, and in vitro antibacterial, antifungal, antitubercular, and antimalarial activity” (Med Chem Res, 2013).
Values after ≈ are worked out from the molar mass of the structure shown.

Key:
[1] = tested on: Mycobacterium tuberculosis; assay: Antitubercular activity against Mycobacterium tuberculosis H37Rv MTCC 200 assessed as growth inhibition at 6.25 ug/ml by BACTEC MGIT method; format: functional
[2] = tested on: Mycobacterium tuberculosis; assay: Antitubercular activity against Mycobacterium tuberculosis H37Rv MTCC 200 assessed as growth inhibition by BACTEC MGIT method; format: functional
Aspergillus clavatus = assay: Antimicrobial activity against Aspergillus clavatus MTCC 1323 assessed as growth inhibition by broth microdilution method; format: functional
Aspergillus niger = assay: Antimicrobial activity against Aspergillus niger MTCC 282 assessed as growth inhibition by broth microdilution method; format: functional
Candida albicans = assay: Antimicrobial activity against Candida albicans MTCC 227 assessed as growth inhibition by broth microdilution method; format: functional
Bacillus subtilis = assay: Antimicrobial activity against Bacillus subtilis MTCC 441 assessed as growth inhibition by broth microdilution method; format: functional
Streptococcus pyogenes = assay: Antimicrobial activity against Streptococcus pyogenes MTCC 442 assessed as growth inhibition by broth microdilution method; format: functional
Staphylococcus aureus = assay: Antimicrobial activity against Staphylococcus aureus MTCC 96 assessed as growth inhibition by broth microdilution method; format: functional
Klebsiella pneumoniae = assay: Antimicrobial activity against Klebsiella pneumoniae MTCC 109 assessed as growth inhibition by broth microdilution method; format: functional
Pseudomonas aeruginosa = assay: Antimicrobial activity against Pseudomonas aeruginosa MTCC 1688 assessed as growth inhibition by broth microdilution method; format: functional
Escherichia coli = assay: Antimicrobial activity against Escherichia coli MTCC 443 assessed as growth inhibition by broth microdilution method; format: functional
Plasmodium falciparum = assay: Antimalarial activity against chloroquine-sensitive Plasmodium falciparum 3D7 assessed as inhibition of complete maturation into schizonts after 40 hr; format: functional; settings: 3D7, 40 h
Vero = assay: Cytotoxicity against Chlorocebus aethiops (African green monkey) Vero cells assessed as inhibition of cell viability at equal to and greater than MIC for Mycobacterium tuberculosis H37Rv after 72 hr by MTT assay; format: cell-based; settings: chlorocebus sabaeus
[3] = tested on: Mycobacterium tuberculosis; assay: Antitubercular activity against Mycobacterium tuberculosis H37Rv MTCC 200 assessed as growth inhibition at MIC by L.J. MIC method; format: functional
[4] = tested on: Mycobacterium tuberculosis; assay: Antitubercular activity against Mycobacterium tuberculosis H37Rv MTCC 200 assessed as growth inhibition by L.J. MIC method; format: functional

`O=C1C(=O)N(CCSC(=S)N2CCN(c3ccc(Cl)c(Cl)c3)CC2)c2ccccc21` was tested, and the inhibition at 6.25 µg/mL [1] was 92%, the MIC [2] was over 6.25 µg/mL and the MIC99 (Aspergillus clavatus) was 500 µg/mL. It also gave an MIC99 (Aspergillus niger) of 500 µg/mL, an MIC99 (Candida albicans) of over 1000 µg/mL and an MIC99 (Bacillus subtilis) of 200 µg/mL. For the same compound, the MIC99 (Streptococcus pyogenes) was 100 µg/mL, the MIC99 (Staphylococcus aureus) was 250 µg/mL and the MIC99 (Klebsiella pneumoniae) was 500 µg/mL. For the same compound, the MIC99 (Pseudomonas aeruginosa) was 100 µg/mL, the MIC99 (Escherichia coli) was 500 µg/mL and the MIC (Plasmodium falciparum) was 0.25 µg/mL (≈ 0.52 µM). For the same compound, the Activity (Vero) was “Non-toxic”, the “inhibition (Growth inhibition)” value [3] was 87% and the MIC [4] was 250 µg/mL (≈ 520 µM).

With `O=C1C(=O)N(CCCSC(=S)N2CCN(c3ccc(Cl)c(Cl)c3)CC2)c2ccccc21` the inhibition at 6.25 µg/mL [1] was 96%, the MIC [2] was over 6.25 µg/mL and the MIC99 (Aspergillus clavatus) was over 1000 µg/mL. It also gave an MIC99 (Aspergillus niger) of 500 µg/mL, an MIC99 (Candida albicans) of over 1000 µg/mL and an MIC99 (Bacillus subtilis) of 100 µg/mL. It also gave an MIC99 (Streptococcus pyogenes) of 500 µg/mL, an MIC99 (Staphylococcus aureus) of 500 µg/mL and an MIC99 (Klebsiella pneumoniae) of 500 µg/mL. The MIC99 (Pseudomonas aeruginosa) was 200 µg/mL, the MIC99 (Escherichia coli) was 500 µg/mL and the MIC (Plasmodium falciparum) was 0.089 µg/mL (≈ 0.18 µM). The Activity (Vero) was “Non-toxic”, the “inhibition (Growth inhibition)” value [3] was 97% and the MIC [4] was 200 µg/mL (≈ 404 µM).

For `CO[C@H]1/C=C/O[C@@]2(C)Oc3c(C)c(O)c4c(O)c(c(/C=N/N5CCN(C)CC5)c(O)c4c3C2=O)NC(=O)/C(C)=C\C=C\[C@H](C)[C@H](O)[C@@H](C)[C@@H](O)[C@@H](C)[C@H](OC(C)=O)[C@@H]1C` [RIFAMPIN], the inhibition at 6.25 µg/mL [1] was 99% and the MIC [2] was 0.25 µg/mL (≈ 0.304 µM).

`O=C1C(=O)N(CCCSC(=S)N2CCN(c3ccc(Cl)c(Cl)c3)CC2)c2ccc(Cl)cc21` was tested, and the inhibition at 6.25 µg/mL [1] was 91%, the MIC [2] was over 6.25 µg/mL and the MIC99 (Aspergillus clavatus) was over 1000 µg/mL. It also gave an MIC99 (Aspergillus niger) of over 1000 µg/mL, an MIC99 (Candida albicans) of 500 µg/mL and an MIC99 (Bacillus subtilis) of 500 µg/mL. The MIC99 (Streptococcus pyogenes) was 500 µg/mL, the MIC99 (Staphylococcus aureus) was 500 µg/mL and the MIC99 (Klebsiella pneumoniae) was 500 µg/mL. For the same compound, the MIC99 (Pseudomonas aeruginosa) was 250 µg/mL, the MIC99 (Escherichia coli) was 200 µg/mL and the MIC (Plasmodium falciparum) was 0.2 µg/mL (≈ 0.378 µM). The Activity (Vero) was “Non-toxic”, the “inhibition (Growth inhibition)” value [3] was 92% and the MIC [4] was 250 µg/mL (≈ 473 µM).

Compound `O=C1C(=O)N(CCSC(=S)N2CCN(c3ccc(Cl)c(Cl)c3)CC2)c2ccc(F)cc21` has an inhibition at 6.25 µg/mL [1] of 99%, an MIC [2] of 6.25 µg/mL (≈ 12.5 µM) and an MIC99 (Aspergillus clavatus) of 100 µg/mL. For the same compound, the MIC99 (Aspergillus niger) was 100 µg/mL, the MIC99 (Candida albicans) was 100 µg/mL and the MIC99 (Bacillus subtilis) was 200 µg/mL. It also gave an MIC99 (Streptococcus pyogenes) of 62.5 µg/mL, an MIC99 (Staphylococcus aureus) of 100 µg/mL and an MIC99 (Klebsiella pneumoniae) of 62.5 µg/mL. For the same compound, the MIC99 (Pseudomonas aeruginosa) was 100 µg/mL, the MIC99 (Escherichia coli) was 62.5 µg/mL and the MIC (Plasmodium falciparum) was 0.043 µg/mL (≈ 0.0863 µM). For the same compound, the Activity (Vero) was “Non-toxic”, the “inhibition (Growth inhibition)” value [3] was 99% and the MIC [4] was 3.1 µg/mL (≈ 6.22 µM).

For `O=C(O)c1cn(C2CC2)c2cc(N3CCNCC3)c(F)cc2c1=O` [CIPROFLOXACIN], the MIC99 (Bacillus subtilis) was at most 50 µg/mL, the MIC99 (Streptococcus pyogenes) was at most 50 µg/mL and the MIC99 (Staphylococcus aureus) was at most 25 µg/mL. For the same compound, the MIC99 (Klebsiella pneumoniae) was at most 25 µg/mL, the MIC99 (Pseudomonas aeruginosa) was at most 25 µg/mL and the MIC99 (Escherichia coli) was at most 25 µg/mL.

`O=C1C(=O)N(CCSC(=S)N2CCN(c3ccc(Cl)c(Cl)c3)CC2)c2ccc([N+](=O)[O-])cc21` gave an inhibition at 6.25 µg/mL [1] of 99%, an MIC [2] of 6.25 µg/mL (≈ 11.9 µM) and an MIC99 (Aspergillus clavatus) of 100 µg/mL. The MIC99 (Aspergillus niger) was 100 µg/mL, the MIC99 (Candida albicans) was 100 µg/mL and the MIC99 (Bacillus subtilis) was 100 µg/mL. It also gave an MIC99 (Streptococcus pyogenes) of 100 µg/mL, an MIC99 (Staphylococcus aureus) of 62.5 µg/mL and an MIC99 (Klebsiella pneumoniae) of 100 µg/mL. It also gave an MIC99 (Pseudomonas aeruginosa) of 62.5 µg/mL, an MIC99 (Escherichia coli) of 100 µg/mL and an MIC (Plasmodium falciparum) of 0.072 µg/mL (≈ 0.137 µM). The Activity (Vero) was “Non-toxic”, the “inhibition (Growth inhibition)” value [3] was 99% and the MIC [4] was 6.25 µg/mL (≈ 11.9 µM).

`S=C(SSC(=S)N1CCN(c2ccc(Cl)c(Cl)c2)CC1)N1CCN(c2ccc(Cl)c(Cl)c2)CC1` gave an inhibition at 6.25 µg/mL [1] of 99%, an MIC [2] of 6.25 µg/mL (≈ 10.2 µM) and an MIC99 (Aspergillus clavatus) of 100 µg/mL. For the same compound, the MIC99 (Aspergillus niger) was 100 µg/mL, the MIC99 (Candida albicans) was 200 µg/mL and the MIC99 (Bacillus subtilis) was 100 µg/mL. The MIC99 (Streptococcus pyogenes) was 62.5 µg/mL, the MIC99 (Staphylococcus aureus) was 200 µg/mL and the MIC99 (Klebsiella pneumoniae) was 62.5 µg/mL. The MIC99 (Pseudomonas aeruginosa) was 100 µg/mL, the MIC99 (Escherichia coli) was 100 µg/mL and the MIC (Plasmodium falciparum) was 0.25 µg/mL (≈ 0.408 µM). For the same compound, the Activity (Vero) was “Non-toxic”, the “inhibition (Growth inhibition)” value [3] was 98% and the MIC [4] was 6.25 µg/mL (≈ 10.2 µM).

Work on `O=C1C(=O)N(CCCSC(=S)N2CCN(c3ccc(Cl)c(Cl)c3)CC2)c2ccc(Br)cc21` yielded an inhibition at 6.25 µg/mL [1] of 99%, an MIC [2] of 6.25 µg/mL (≈ 10.9 µM) and an MIC99 (Aspergillus clavatus) of 500 µg/mL. It also gave an MIC99 (Aspergillus niger) of 100 µg/mL, an MIC99 (Candida albicans) of 250 µg/mL and an MIC99 (Bacillus subtilis) of 250 µg/mL. It also gave an MIC99 (Streptococcus pyogenes) of 100 µg/mL, an MIC99 (Staphylococcus aureus) of 200 µg/mL and an MIC99 (Klebsiella pneumoniae) of 250 µg/mL. The MIC99 (Pseudomonas aeruginosa) was 100 µg/mL, the MIC99 (Escherichia coli) was 200 µg/mL and the MIC (Plasmodium falciparum) was 0.25 µg/mL (≈ 0.436 µM). The Activity (Vero) was “Non-toxic”, the “inhibition (Growth inhibition)” value [3] was 94% and the MIC [4] was 100 µg/mL (≈ 174 µM).

Work on `NNC(=O)c1ccncc1` [ISONIAZID] yielded an MIC [2] of 0.2 µg/mL (≈ 1.46 µM).
